Reference: patent US8835377B2, “Oral delivery of peptide pharmaceutical compositions” (UGP Therapeutics, Inc., priority 2004, dated 2014)

Assay: Pharmacokinetics after oral capsules (sCT plus Dmt-DALDA with citric acid and lauroyl carnitine), non-enteric coated or enteric coated, in fasted beagle dogs (plasma; ELISA for sCT, HPLC-MS for Dmt-DALDA)
Assay type: in vivo
Experimental: A second series of tests was carried out, as noted above, using beagle dogs. […] In the experiments represented in FIGS. 2A and 2B, size 00 […] capsules were each filled with 758 mg of a powdered blend consisting of citric acid (643 mg), lauroyl carnitine (66 mg), talc (33 mg), salmon calcitonin (sCT) (13 mg) and Dmt-DALDA (2.4 mg). Half of the capsules were coated with an enteric coating solution of L30D-55, while the remaining 50% of the capsules were not coated. Four fasted dogs were each given 1 uncoated capsule, and 2 weeks later they were each given an enteric coated capsule. After administration of each capsule, samples of blood were taken at 15 minute intervals from an indwelling catheter for up to 4 hours. The blood samples were centrifuged and the resulting plasma supernatants were stored frozen at −20° C. The plasma samples were subsequently analyzed for sCT by a direct ELISA, and for Dmt-DALDA by HPLC-mass spectrometry performed as set forth in Wan, H. and Desiderio, D., Quantitation of [DMT^1] DALDA in ovine plasma by on-line liquid chromatography/quadrapole time-of-flight mass spectrometry, Rapid Communications in Mass Spectrometry, 2003; 17, 538-546, the contents of which are incorporated herein by reference.
The results summarized in FIGS. 2A and 2B as plasma peptide concentration normalized to a 1 mg dose as a function of time relative to the average Tmax, (i.e., the time at which the maximum amount of peptide was detected) indicate that both peptides, i.e., sCT and Dmt-DALDA, were detected in dogs given uncoated or enteric coated capsules. […] Table DI (below) sets forth the values upon which the curves in FIGS. 2A and 2B are based. The results are summarized in the tables as plasma peptide concentration normalized to a 1 mg dose as a function of time. Table III, moreover, provides the standard deviations for the data obtained regarding each of the test dogs, which standard deviations are also indicated in FIGS. 2A and 2B.
Table IV (below) summarizes the pharmacokinetic parameters in dogs of orally administered sCT and Dmt-DALDA when administered in non-enteric coated versus enteric coated capsules. Peptide was not detected from 1 dog in each group due to (a) Dog 3 vomiting the uncoated capsule and (b) delayed gastric emptying in Dog 2 provided with an enteric coated capsule. Cmax and AUC are as defined with regard to Table H above.

Cc1cc(O)cc(C)c1C[C@H](N)C(=O)N[C@H](CCCNC(=N)N)C(=O)N[C@@H](Cc1ccccc1)C(=O)N[C@@H](CCCCN)C(N)=O [Dmt-DALDA, H-2,6-dimethyltyrosine-D-Arginine-Phenylalanine-Lysine-NH2]
plasma peptide concentration normalized to a 1 mg dose (enteric coated capsule, Dog 3, 45 min): 0 pg/mL | plasma peptide concentration normalized to a 1 mg dose (enteric coated capsule, Dog 3, 60 min): 0 pg/mL | plasma peptide concentration normalized to a 1 mg dose (enteric coated capsule, Dog 3, 75 min): 0 pg/mL | plasma peptide concentration normalized to a 1 mg dose (enteric coated capsule, Dog 3, 90 min): 0 pg/mL | plasma peptide concentration normalized to a 1 mg dose (enteric coated capsule, Dog 3, 105 min): 0 pg/mL | plasma peptide concentration normalized to a 1 mg dose (enteric coated capsule, Dog 3, 120 min): 0 pg/mL | plasma peptide concentration normalized to a 1 mg dose (enteric coated capsule, Dog 3, 135 min): 21494 pg/mL | plasma peptide concentration normalized to a 1 mg dose (enteric coated capsule, Dog 3, 150 min): 19378 pg/mL | plasma peptide concentration normalized to a 1 mg dose (enteric coated capsule, Dog 3, 165 min): 12697 pg/mL | plasma peptide concentration normalized to a 1 mg dose (enteric coated capsule, Dog 3, 180 min): 9100 pg/mL | plasma peptide concentration normalized to a 1 mg dose (enteric coated capsule, Dog 3, 195 min): 4876 pg/mL | plasma peptide concentration normalized to a 1 mg dose (enteric coated capsule, Dog 4, 0 min): 0 pg/mL | plasma peptide concentration normalized to a 1 mg dose (enteric coated capsule, Dog 4, 15 min): 0 pg/mL | plasma peptide concentration normalized to a 1 mg dose (enteric coated capsule, Dog 4, 30 min): 0 pg/mL | plasma peptide concentration normalized to a 1 mg dose (enteric coated capsule, Dog 4, 45 min): 0 pg/mL | plasma peptide concentration normalized to a 1 mg dose (enteric coated capsule, Dog 4, 60 min): 0 pg/mL | plasma peptide concentration normalized to a 1 mg dose (enteric coated capsule, Dog 4, 75 min): 0 pg/mL | plasma peptide concentration normalized to a 1 mg dose (enteric coated capsule, Dog 4, 90 min): 0 pg/mL | plasma peptide concentration normalized to a 1 mg dose (enteric coated capsule, Dog 4, 105 min): 4577 pg/mL | plasma peptide concentration normalized to a 1 mg dose (enteric coated capsule, Dog 4, 120 min): 12116 pg/mL | plasma peptide concentration normalized to a 1 mg dose (enteric coated capsule, Dog 4, 135 min): 10207 pg/mL | plasma peptide concentration normalized to a 1 mg dose (enteric coated capsule, Dog 4, 150 min): 6307 pg/mL | plasma peptide concentration normalized to a 1 mg dose (enteric coated capsule, Dog 4, 165 min): 5158 pg/mL | plasma peptide concentration normalized to a 1 mg dose (enteric coated capsule, Dog 4, 180 min): 3884 pg/mL | plasma peptide concentration normalized to a 1 mg dose (enteric coated capsule, Dog 4, 195 min): 2896 pg/mL | plasma peptide concentration normalized to a 1 mg dose (non-enteric coated capsule, Dog 1, 45 min): 5104 pg/mL | plasma peptide concentration normalized to a 1 mg dose (non-enteric coated capsule, Dog 1, 60 min): 4066 pg/mL | plasma peptide concentration normalized to a 1 mg dose (non-enteric coated capsule, Dog 1, 75 min): 2407 pg/mL | plasma peptide concentration normalized to a 1 mg dose (non-enteric coated capsule, Dog 1, 90 min): 2780 pg/mL | plasma peptide concentration normalized to a 1 mg dose (non-enteric coated capsule, Dog 1, 105 min): 1938 pg/mL | plasma peptide concentration normalized to a 1 mg dose (non-enteric coated capsule, Dog 1, 120 min): 1627 pg/mL | plasma peptide concentration normalized to a 1 mg dose (non-enteric coated capsule, Dog 1, 135 min): 1158 pg/mL | plasma peptide concentration normalized to a 1 mg dose (non-enteric coated capsule, Dog 1, 150 min): 830 pg/mL | plasma peptide concentration normalized to a 1 mg dose (non-enteric coated capsule, Dog 1, 165 min): 913 pg/mL | plasma peptide concentration normalized to a 1 mg dose (non-enteric coated capsule, Dog 1, 180 min): 705 pg/mL | plasma peptide concentration normalized to a 1 mg dose (non-enteric coated capsule, Dog 1, 195 min): 581 pg/mL | plasma peptide concentration normalized to a 1 mg dose (non-enteric coated capsule, Dog 1, 210 min): 544 pg/mL | plasma peptide concentration normalized to a 1 mg dose (non-enteric coated capsule, Dog 1, 225 min): 436 pg/mL | plasma peptide concentration normalized to a 1 mg dose (non-enteric coated capsule, Dog 1, 240 min): 402 pg/mL | plasma peptide concentration normalized to a 1 mg dose (non-enteric coated capsule, Dog 2, 45 min): 5602 pg/mL | plasma peptide concentration normalized to a 1 mg dose (non-enteric coated capsule, Dog 2, 60 min): 5726 pg/mL | plasma peptide concentration normalized to a 1 mg dose (non-enteric coated capsule, Dog 2, 75 min): 4523 pg/mL | plasma peptide concentration normalized to a 1 mg dose (non-enteric coated capsule, Dog 2, 90 min): 3568 pg/mL | plasma peptide concentration normalized to a 1 mg dose (non-enteric coated capsule, Dog 2, 105 min): 3444 pg/mL | plasma peptide concentration normalized to a 1 mg dose (non-enteric coated capsule, Dog 2, 120 min): 2614 pg/mL | plasma peptide concentration normalized to a 1 mg dose (non-enteric coated capsule, Dog 2, 135 min): 2697 pg/mL | plasma peptide concentration normalized to a 1 mg dose (non-enteric coated capsule, Dog 2, 150 min): 2407 pg/mL | plasma peptide concentration normalized to a 1 mg dose (non-enteric coated capsule, Dog 2, 165 min): 2531 pg/mL | plasma peptide concentration normalized to a 1 mg dose (non-enteric coated capsule, Dog 2, 180 min): 2075 pg/mL | plasma peptide concentration normalized to a 1 mg dose (non-enteric coated capsule, Dog 2, 195 min): 1328 pg/mL | plasma peptide concentration normalized to a 1 mg dose (non-enteric coated capsule, Dog 2, 210 min): 1867 pg/mL | plasma peptide concentration normalized to a 1 mg dose (non-enteric coated capsule, Dog 2, 225 min): 1535 pg/mL | plasma peptide concentration normalized to a 1 mg dose (non-enteric coated capsule, Dog 2, 240 min): 1494 pg/mL | plasma peptide concentration normalized to a 1 mg dose (non-enteric coated capsule, Dog 4, 45 min): 5788 pg/mL | plasma peptide concentration normalized to a 1 mg dose (non-enteric coated capsule, Dog 4, 60 min): 4481 pg/mL | plasma peptide concentration normalized to a 1 mg dose (non-enteric coated capsule, Dog 4, 75 min): 2934 pg/mL | plasma peptide concentration normalized to a 1 mg dose (non-enteric coated capsule, Dog 4, 90 min): 2382 pg/mL | plasma peptide concentration normalized to a 1 mg dose (non-enteric coated capsule, Dog 4, 105 min): 3054 pg/mL | plasma peptide concentration normalized to a 1 mg dose (non-enteric coated capsule, Dog 4, 120 min): 1759 pg/mL | plasma peptide concentration normalized to a 1 mg dose (non-enteric coated capsule, Dog 4, 135 min): 1627 pg/mL | plasma peptide concentration normalized to a 1 mg dose (non-enteric coated capsule, Dog 4, 150 min): 1544 pg/mL | plasma peptide concentration normalized to a 1 mg dose (non-enteric coated capsule, Dog 4, 165 min): 1324 pg/mL | plasma peptide concentration normalized to a 1 mg dose (non-enteric coated capsule, Dog 4, 180 min): 1191 pg/mL | plasma peptide concentration normalized to a 1 mg dose (non-enteric coated capsule, Dog 4, 195 min): 851 pg/mL | plasma peptide concentration normalized to a 1 mg dose (non-enteric coated capsule, Dog 4, 210 min): 722 pg/mL | plasma peptide concentration normalized to a 1 mg dose (non-enteric coated capsule, Dog 4, 225 min): 672 pg/mL | plasma peptide concentration normalized to a 1 mg dose (non-enteric coated capsule, Dog 4, 240 min): 556 pg/mL
